#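 Step 1: Grow cells in 96-well plates. Step 2: Expose to compound for 48 hours at 5 concentrations. Step 3: Interpolate endpoints linearly; if unreached, use highest concentration. The concentration for 50% growth inhibition is given as GI50. TGI: total growth inhibition.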
# What was measured:
# Experiment in all cases: DTP human tumour cell line panel, 48 h
# SW-620 colon = tested on: SW-620 colon
# NCI-H460 lung = tested on: NCI-H460 lung
# UO-31 renal = tested on: UO-31 renal
# NCI-H522 lung = tested on: NCI-H522 lung
# HOP-62 NSCLC = tested on: HOP-62 NSCLC
# SK-MEL-5 melanoma = tested on: SK-MEL-5 melanoma
# MDA-MB-435 = tested on: MDA-MB-435
# HOP-92 NSCLC = tested on: HOP-92 NSCLC
# OVCAR-5 ovarian = tested on: OVCAR-5 ovarian
# IGROV1 ovarian = tested on: IGROV1 ovarian
Compound,GI50 (SW-620 colon) [µM],TGI (SW-620 colon) [µM],GI50 (NCI-H460 lung) [µM],TGI (NCI-H460 lung) [µM],GI50 (UO-31 renal) [µM],TGI (UO-31 renal) [µM],GI50 (NCI-H522 lung) [µM],TGI (NCI-H522 lung) [µM],GI50 (HOP-62 NSCLC) [µM],TGI (HOP-62 NSCLC) [µM],GI50 (SK-MEL-5 melanoma) [µM],TGI (SK-MEL-5 melanoma) [µM],GI50 (MDA-MB-435) [µM],TGI (MDA-MB-435) [µM],GI50 (HOP-92 NSCLC) [µM],TGI (HOP-92 NSCLC) [µM],GI50 (OVCAR-5 ovarian) [µM],TGI (OVCAR-5 ovarian) [µM],GI50 (IGROV1 ovarian) [µM],TGI (IGROV1 ovarian) [µM]
Cc1cc(Nc2nc(-c3ccncc3)nc3ccccc23)n[nH]1,3.71,> 100,6.18,> 100,1.23,> 100,13.1,> 100,11,> 100,52.6,> 100,12.1,> 100,4.39,> 100,> 100,> 100,1.92,> 100
C/C(=N/O)c1ccc(Nc2cc(-n3ccnc3)c3ccccc3n2)cc1,41.8,> 100,21.5,> 100,15.3,> 100,35.8,> 100,53.2,> 100,16.3,> 100,36.4,> 100,38.3,> 100,86.6,> 100,15.1,52.8
O=C(/C=C/c1cccc2ccccc12)Nc1ncc(Cc2ccccc2)s1,0.737,> 100,0.861,5.19,1.39,3.98,0.703,> 32.8,0.885,4.56,1.8,> 100,0.247,0.725,0.371,4.73,1.98,> 100,1.27,> 87.3
COc1cc2c(cc1OCCCOc1ccc(-c3nc4ccc(N5CCN(C)CC5)cc4[nH]3)cc1)N=C[C@@H]1CCCN1C2=O,< 0.01,15.2,< 0.01,< 0.0505,–,–,< 0.01,< 0.01,< 0.01,< 0.01,< 0.01,< 0.01,< 0.01,< 0.01,–,–,< 0.01,–,–,–
COc1ccc(C2=Nc3c/c(=C\c4c(O)[nH]c5cc(Cl)ccc45)ccc3=N2)cc1,3.01,19,8.01,26.1,10.2,26.7,7.07,29.1,12.4,29,10.7,22.7,0.26,1.97,0.553,9.83,22,60,17.6,50.5
CCCCCCCCCCSC(=N)N,1.7,3.52,2.02,4.68,2.61,12.4,1.56,3.47,3.36,10.3,2.12,4.71,1.77,4.01,1.42,4.59,9.84,23.5,2.85,13.3
Cc1ccc(-c2n[nH]c(=O)c3noc(-c4ccc(C)cc4)c23)cc1,0.427,> 100,0.751,25,1.26,44.9,0.411,4.98,0.835,13.4,0.97,> 100,0.235,0.651,0.194,0.962,5.99,> 100,1.89,28.6
C=CC(C)(O)CC/C=C(\CO)C(=O)OC1C(C)OC(O[C@](C)(C=C)CC/C=C(\CO)C(=O)O[C@H]2C[C@@]3(C(=O)OC4OC(CO)C(O)C(O)C4OC4OC(C)C(OC5OC(CO)C(O)C5O)C(OC5OC(CO)C(O)C(O)C5O)C4O)C(CC2(C)C)C2=CCC4[C@@]5(C)CC[C@H](OC6OC(COC7OC(C)C(O)C(O)C7OC7OCC(O)C(O)C7O)C(O)C(O)C6NC(C)=O)C(C)(C)C5CC[C@@]4(C)[C@]2(C)C[C@H]3O)C(O)C1O (some centres undefined),0.143,4.27,3.72,9.79,0.234,0.966,0.341,1.61,0.275,1.58,1.99,6.22,0.0978,0.382,0.0736,0.794,1.38,5.95,2.96,9.63
CN=C(N)N/N=C(\C)c1ccc2c(c1)Cc1ccccc1-2,1.43,3.29,0.556,1.81,1.43,2.89,–,–,1.66,3.2,1.61,2.95,1.64,3.15,1.63,5.67,1.65,3.96,3.74,19.5
CC(N1CCOCC1)C(O)(c1ccccc1)c1ccccn1 (centres undefined),–,> 100,–,> 100,–,> 100,–,> 100,–,> 100,–,> 100,–,> 100,–,> 100,–,> 100,–,> 100
COc1cc(/C=N/NC(=O)c2ccccc2Nc2cccc(C(F)(F)F)c2)cc(OC)c1OC,1.71,6.36,2.3,6.33,6.11,21.5,6.1,24.6,3.23,11,2.93,10.8,0.476,1.67,–,–,11.8,33.1,4.19,14.2
CCCOC(=O)C1C2CCC(O2)C1C(=O)O (centres undefined),–,> 100,–,–,–,> 100,–,> 100,–,> 100,–,> 100,–,> 100,–,–,–,> 100,–,> 100
NNC(=O)C(O)C(O)C(=O)NN (centres undefined),–,> 100,–,–,–,> 100,–,> 100,–,> 100,–,> 100,–,> 100,–,–,–,> 100,–,> 100
CNC(c1ccncc1)C(NC)c1ccncc1 (centres undefined),–,> 100,–,–,–,> 100,–,> 100,–,> 100,–,> 100,–,> 100,–,–,–,> 100,–,> 100
O=C(/C=C/c1ccccc1)CCC1C(=O)NC(=S)NC1=O,–,> 100,–,> 100,–,> 100,–,–,–,–,–,> 100,–,> 100,–,> 100,–,> 100,–,–
CC(=O)c1c2c(cc3c1CC1(C3)Cc3cc4c(c(C(=O)O)c3C1)CCC4)CCC2 (centres undefined),–,> 100,–,> 100,–,72.7,–,42.3,–,> 100,–,> 100,–,–,–,81.2,–,> 100,–,> 100

# Source: PubChem BioAssay (NCI)
